The target of test [1] is HCV NS3/4A protease genotype 1b (Hepatitis C virus genotype 1b, UniProt P26663). Put plainly: HCV NS3/4A protease time-resolved fluorescence (TRF) assay, Ki against genotype 1b. To be noted: IC50 [gt-1b] (nM), NS3/4A genotype 1b, enzyme 0.2 nM. It counts as biochemical. In outline: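 Enzyme 0.2 nM 1b / 0.4 nM A156T / 0.025 nM 3a; 30 min preinc. w/ cpd; 25 nM TRF peptide; 2.5 h RT; ex 340/em 615 time-delayed; 4-param IC50 → Ki = IC50/(1+[S]/KM).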

The test system of another test is HCV genotype 1b replicon. The test is described as follows: HCV replicon assay, genotype 1b replicon EC50. It is filed as cell-based, Hepatitis C virus. The conditions noted are these: Hepatitis C virus, genotype 1b replicon, read-out: EC50 [gt-1b]. In outline: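 Stable neomycin phosphotransferase-encoding replicon cell lines, kept under G418 selection beforehand, were plated with a compound dilution series without G418 and incubated 24-48 hours. Replicon RNA was then quantified, or luciferase activity read. EC50 was calculated as percent of DMSO control by four-parameter fit.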

Molecules are shown by their SMILES. Like-named read-outs stand apart in the source and are kept apart here.

In turn, `CC(C)(OC(=O)N[C@H]1CCCCC/C=C\[C@@H]2C[C@@]2(C(=O)NS(=O)(=O)C2(C)CC2)NC(=O)[C@@H]2C[C@]3(CCc4c(c(C(F)F)nc5ccc(Cl)cc45)O3)CN2C1=O)C(F)(F)F` [Example 334, 1,1,1-trifluoro-2-methylpropan-2-yl [(2R,6S,12Z,13aS,14aR,16aS)-9′-chloro-5′-(difluoromethyl)-14a-{[(1-methylcyclopropyl)sulfonyl]carbamoyl}-5,16-dioxo-1,1′,2′,5,6,7,8,9,10,11,13a,14,14a,15,16,16a-hexadecahydrospiro[cyclopropa[e]pyrrolo[1,2-a][1,4]diazacyclopentadecine-2,3′-pyrano[2,3-c]quinolin]-6-yl]carbamate] returned an IC50 in test [1] of 0.019 nM. Moreover, the EC50 in the test with HCV genotype 1b replicon was found to be 5.59 nM.

Take `CCc1nc2ccc(OC)cc2c2c1O[C@]1(CC2)C[C@H]2C(=O)N[C@]3(C(=O)NS(=O)(=O)C4(C)CC4)C[C@H]3/C=C\CCCCC[C@H](NC(=O)OC(C)(C)C(F)(F)F)C(=O)N2C1` [Example 335, 1,1,1-trifluoro-2-methylpropan-2-yl [(2R,6S,12Z,13aS,14aR,16aS)-5′-ethyl-9′-methoxy-14a-{[(1-methylcyclopropyl)sulfonyl]carbamoyl}-5,16-dioxo-1,1′,2′,5,6,7,8,9,10,11,13a,14,14a,15,16,16a-hexadecahydrospiro[cyclopropa[e]pyrrolo[1,2-a][1,4]diazacyclopentadecine-2,3′-pyrano[2,3-c]quinolin]-6-yl]carbamate]: in test [1], the IC50 worked out at 0.017 nM. For the same compound, in the test on HCV genotype 1b replicon, the EC50 came out at 2.6 nM.

The compound `CCc1nc2ccc(OC)cc2c2c1O[C@]1(CC2)C[C@H]2C(=O)N[C@]3(C(=O)NS(=O)(=O)C4(C)CC4)C[C@H]3/C=C\CCCCC[C@H](NC(=O)OC3CCCC3)C(=O)N2C1` [Example 336, cyclopentyl [(2R,6S,12Z,13aS,14aR,16aS)-5′-ethyl-9′-methoxy-14a-{[(1-methylcyclopropyl)sulfonyl]carbamoyl}-5,16-dioxo-1,1′,2′,5,6,7,8,9,10,11,13a,14,14a,15,16,16a-hexadecahydrospiro[cyclopropa[e]pyrrolo[1,2-a][1,4]diazacyclopentadecine-2,3′-pyrano[2,3-c]quinolin]-6-yl]carbamate] displayed an IC50 in test [1] of 0.008 nM. In addition, the half-maximal effective concentration (EC50) in the test with HCV genotype 1b replicon was determined as 3.46 nM.

`CCc1nc2ccc(OC)cc2c2c1O[C@]1(CC2)C[C@H]2C(=O)N[C@]3(C(=O)NS(=O)(=O)C4(C)CC4)C[C@H]3/C=C\CCCCC[C@H](NC(=O)OCC(C)C)C(=O)N2C1` [Example 337, 2-methylpropyl [(2R,6S,12Z,13aS,14aR,16aS)-5′-ethyl-9′-methoxy-14a-{[(1-methylcyclopropyl)sulfonyl]carbamoyl}-5,16-dioxo-1,1′,2′,5,6,7,8,9,10,11,13a,14,14a,15,16,16a-hexadecahydrospiro[cyclopropa[e]pyrrolo[1,2-a][1,4]diazacyclopentadecine-2,3′-pyrano[2,3-c]quinolin]-6-yl]carbamate] returned an IC50 in test [1] of 0.009 nM. Further, in the test on HCV genotype 1b replicon, the EC50 was determined as 2.37 nM.

The compound `CCc1nc2ccc(OC)cc2c2c1O[C@]1(CC2)C[C@H]2C(=O)N[C@]3(C(=O)NS(=O)(=O)C4(C)CC4)C[C@H]3/C=C\CCCCC[C@H](NC(=O)OCC(C)(C)C)C(=O)N2C1` [Example 338, 2,2-dimethylpropyl [(2R,6S,12Z,13aS,14aR,16aS)-5′-ethyl-9′-methoxy-14a-{[(1-methylcyclopropyl)sulfonyl]carbamoyl}-5,16-dioxo-1,1′,2′,5,6,7,8,9,10,11,13a,14,14a,15,16,16a-hexadecahydrospiro[cyclopropa[e]pyrrolo[1,2-a][1,4]diazacyclopentadecine-2,3′-pyrano[2,3-c]quinolin]-6-yl]carbamate] had an IC50 in test [1] of 0.009 nM. In the test on HCV genotype 1b replicon, the EC50 was 1.53 nM.

In the case of `Cc1nc2cc(F)ccc2c2c1O[C@]1(CC2)C[C@H]2C(=O)N[C@]3(C(=O)NS(=O)(=O)C4(C)CC4)C[C@H]3/C=C\CCCCC[C@H](NC(=O)OCC(C)(C)C)C(=O)N2C1` [Example 339, 2,2-dimethylpropyl [(2R,6S,12Z,13aS,14aR,16aS)-8′-fluoro-5′-methyl-14a-{[(1-methylcyclopropyl)sulfonyl]carbamoyl}-5,16-dioxo-1,1′,2′,5,6,7,8,9,10,11,13a,14,14a,15,16,16a-hexadecahydrospiro[cyclopropa[e]pyrrolo[1,2-a][1,4]diazacyclopentadecine-2,3′-pyrano[2,3-c]quinolin]-6-yl]carbamate], in test [1], the IC50 amounted to 0.019 nM. For the same compound, in the test with HCV genotype 1b replicon, the EC50 is 1.92 nM.

The compound `Cc1nc2cc(F)ccc2c2c1O[C@]1(CC2)C[C@H]2C(=O)N[C@]3(C(=O)NS(=O)(=O)C4(C)CC4)C[C@H]3/C=C\CCCCC[C@H](NC(=O)OCC(C)C)C(=O)N2C1` [Example 340, 2-methylpropyl [(2R,6S,12Z,13aS,14aR,16aS)-8′-fluoro-5′-methyl-14a-{[(1-methylcyclopropyl)sulfonyl]carbamoyl}-5,16-dioxo-1,1′,2′,5,6,7,8,9,10,11,13a,14,14a,15,16,16a-hexadecahydrospiro[cyclopropa[e]pyrrolo[1,2-a][1,4]diazacyclopentadecine-2,3′-pyrano[2,3-c]quinolin]-6-yl]carbamate] came in with a half-inhibitory concentration (IC50) in test [1] of 0.03 nM. For the same compound, in the test on HCV genotype 1b replicon, the half-maximal effective concentration (EC50) is 3.23 nM.

With `COc1cccc(N[C@H]2CCCCC/C=C\[C@@H]3C[C@@]3(C(=O)NS(=O)(=O)C3(C)CC3)NC(=O)[C@@H]3C[C@]4(CCc5c(c(C)nc6ccccc56)O4)CN3C2=O)c1` [Example 341, (2R,6S,12Z,13aS,14aR,16aS)-6-[(3-methoxyphenyl)amino]-5′-methyl-N-[(1-methylcyclopropyl)sulfonyl]-5,16-dioxo-1,1′,2′,6,7,8,9,10,11,13a,14,15,16,16a-tetradecahydrospiro[cyclopropa[e]pyrrolo[1,2-a][1,4]diazacyclopentadecine-2,3′-pyrano[2,3-c]quinoline]-14a(5R)-carboxamide], the IC50 in test [1] stood at 0.172 nM. In addition, in the test with HCV genotype 1b replicon, the EC50 amounted to 1.04 nM.

Compound `Cc1cccc(N[C@H]2CCCCC/C=C\[C@@H]3C[C@@]3(C(=O)NS(=O)(=O)C3(C)CC3)NC(=O)[C@@H]3C[C@]4(CCc5c(c(C)nc6ccccc56)O4)CN3C2=O)n1` [Example 343, (2R,6S,12Z,13aS,14aR,16aS)-5′-methyl-N-[(1-methylcyclopropyl)sulfonyl]-6-[(6-methylpyridin-2-yl)amino]-5,16-dioxo-1,1′,2′,6,7,8,9,10,11,13a,14,15,16,16a-tetradecahydrospiro[cyclopropa[e]pyrrolo[1,2-a][1,4]diazacyclopentadecine-2,3′-pyrano[2,3-c]quinoline]-14a(5H)-carboxamide] returned a half-maximal inhibitory concentration (IC50) in test [1] of 0.05 nM. Also, the EC50 in the test on HCV genotype 1b replicon was found to be 5.86 nM.

Take `Cc1nc2ccccc2c2c1O[C@]1(CC2)C[C@H]2C(=O)N[C@]3(C(=O)NS(=O)(=O)C4(C)CC4)C[C@H]3/C=C\CCCCC[C@H](N)C(=O)N2C1` [Example 344, (2R,6S,12Z,13aS,14aR,16aS)-6-amino-5′-methyl-N-[(1-methylcyclopropyl)sulfonyl]-5,16-dioxo-1,1′,2′,6,7,8,9,10,11,13a,14,15,16,16a-tetradecahydrospiro[cyclopropa[e]pyrrolo[1,2-a][1,4]diazacyclopentadecine-2,3′-pyrano[2,3-c]quinoline]-14a(5H)-carboxamide]: the IC50 in test [1] turned out to be 0.685 nM. Also, the EC50 with HCV genotype 1b replicon was determined as 662 nM.

The compound `Cc1nc2ccccc2c2c1O[C@]1(CC2)C[C@H]2C(=O)N[C@]3(C(=O)NS(=O)(=O)C4(C)CC4)C[C@H]3/C=C\CCCCC[C@H](Nc3cccc(F)c3)C(=O)N2C1` [Example 345, (2R,6S,12Z,13aS,14aR,16aS)-6-[(3-fluorophenyl)amino]-5′-methyl-N-[(1-methylcyclopropyl)sulfonyl]-5,16-dioxo-1,1′,2′,6,7,8,9,10,11,13a,14,15,16,16a-tetradecahydrospiro[cyclopropa[e]pyrrolo[1,2-a][1,4]diazacyclopentadecine-2,3′-pyrano[2,3-c]quinoline]-14a(5H)-carboxamide] gave a half-inhibitory concentration (IC50) in test [1] of 0.428 nM. The 50% effective concentration (EC50) with HCV genotype 1b replicon amounted to 6.59 nM.

On to `COc1ccc2nc(C(F)(F)F)c3c(c2c1)CC[C@]1(C[C@H]2C(=O)N[C@]4(C(=O)NS(=O)(=O)C5(C)CC5)C[C@H]4/C=C\CCCCC[C@H](NC(=O)OC(C)(C)C(F)(F)F)C(=O)N2C1)O3` [Example 348, 1,1,1-trifluoro-2-methylpropan-2-yl [(2R,6S,12Z,13aS,14aR,16aS)-9′-methoxy-14a-{[(1-methylcyclopropyl)sulfonyl]carbamoyl}-5,16-dioxo-5′-(trifluoromethyl)-1,1′,2′,5,6,7,8,9,10,11,13a,14,14a,15,16,16a-hexadecahydrospiro[cyclopropa[e]pyrrolo[1,2-a][1,4]diazacyclopentadecine-2,3′-pyrano[2,3-c]quinolin]-6-yl]carbamate], for which the IC50 in test [1] (K+ salt) came to 0.046 nM. For the same compound, the half-maximal effective concentration (EC50) in the test with HCV genotype 1b replicon (K+ salt) stood at 9.23 nM.

`COc1ccc2nc(C)c3c(c2c1)CC[C@]1(C[C@H]2C(=O)N[C@]4(C(=O)NS(=O)(=O)C5(C)CC5)C[C@H]4/C=C\CCCCC[C@H](NC(=O)OCC4(C(F)(F)F)CC4)C(=O)N2C1)O3` [Example 349, [1-(trifluoromethyl)cyclopropyl]methyl [(2R,6S,12Z,13aS,14aR,16aS)-9′-methoxy-5′-methyl-14a-{[(1-methylcyclopropyl)sulfonyl]carbamoyl}-5,16-dioxo-1,1′,2′,5,6,7,8,9,10,11,13a,14,14a,15,16,16a-hexadecahydrospiro[cyclopropa[e]pyrrolo[1,2-a][1,4]diazacyclopentadecine-2,3′-pyrano[2,3-c]quinolin]-6-yl]carbamate]: in test [1] (K+ salt), the concentration for half-maximal inhibition (IC50) is 0.012 nM. The EC50 in the test on HCV genotype 1b replicon (K+ salt) stood at 4.55 nM.

Values taken from US8987195B2 (priority 2012, dated 2015).
